Source: PubChem BioAssay (NCI)
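The compound was tested at five concentrations on cells cultured in 96-well plates, with a 48-hour exposure period. Abbreviation: GI50, concentration required for 50% inhibition of growth. TGI denotes the concentration required for complete inhibition of growth.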

Columns and labels:
Experiment in all cases: growth of human tumour cells (NCI), 48 h
SK-MEL-28 melanoma = tested on: SK-MEL-28 melanoma
KM12 colon = tested on: KM12 colon
HOP-62 NSCLC = tested on: HOP-62 NSCLC
OVCAR-8 ovarian = tested on: OVCAR-8 ovarian
COLO 205 colon = tested on: COLO 205 colon
HCT-116 colon = tested on: HCT-116 colon
SNB-75 CNS = tested on: SNB-75 CNS
NCI-H522 lung = tested on: NCI-H522 lung
UACC-257 melanoma = tested on: UACC-257 melanoma
IGROV1 ovarian = tested on: IGROV1 ovarian
U251 CNS = tested on: U251 CNS
MOLT-4 leukemia = tested on: MOLT-4 leukemia
A498 renal = tested on: A498 renal
NCI-H226 lung = tested on: NCI-H226 lung
786-0 renal = tested on: 786-0 renal
SF-295 CNS = tested on: SF-295 CNS
NCI-H460 lung = tested on: NCI-H460 lung
HCT-15 colon = tested on: HCT-15 colon
BT-549 breast = tested on: BT-549 breast
HT29 colon = tested on: HT29 colon
M14 melanoma = tested on: M14 melanoma
SW-620 colon = tested on: SW-620 colon
SK-OV-3 ovarian = tested on: SK-OV-3 ovarian
EKVX NSCLC = tested on: EKVX NSCLC
T-47D breast = tested on: T-47D breast
HCC-2998 colon = tested on: HCC-2998 colon
RXF 393 renal = tested on: RXF 393 renal
SK-MEL-2 melanoma = tested on: SK-MEL-2 melanoma
SN12C renal = tested on: SN12C renal
CCRF-CEM leukemia = tested on: CCRF-CEM leukemia
RPMI-8226 leukemia = tested on: RPMI-8226 leukemia
OVCAR-4 ovarian = tested on: OVCAR-4 ovarian
MDA-MB-435 = tested on: MDA-MB-435
SNB-19 CNS = tested on: SNB-19 CNS
TK-10 renal = tested on: TK-10 renal
SK-MEL-5 melanoma = tested on: SK-MEL-5 melanoma
LOX IMVI melanoma = tested on: LOX IMVI melanoma
ACHN renal = tested on: ACHN renal
MALME-3M melanoma = tested on: MALME-3M melanoma
UACC-62 melanoma = tested on: UACC-62 melanoma
OVCAR-3 ovarian = tested on: OVCAR-3 ovarian
NCI/ADR-RES ovarian = tested on: NCI/ADR-RES ovarian
K-562 leukemia = tested on: K-562 leukemia
HL-60(TB) leukemia = tested on: HL-60(TB) leukemia
MDA-MB-231 breast = tested on: MDA-MB-231 breast
OVCAR-5 ovarian = tested on: OVCAR-5 ovarian
SF-268 CNS = tested on: SF-268 CNS
HS 578T breast = tested on: HS 578T breast
DU-145 prostate = tested on: DU-145 prostate
UO-31 renal = tested on: UO-31 renal
CAKI-1 renal = tested on: CAKI-1 renal
NCI-H23 lung = tested on: NCI-H23 lung
PC-3 prostate = tested on: PC-3 prostate
HOP-92 NSCLC = tested on: HOP-92 NSCLC
SF-539 CNS = tested on: SF-539 CNS
SR leukemia = tested on: SR leukemia
MCF7 breast = tested on: MCF7 breast
A549 NSCLC = tested on: A549 NSCLC

Compound `C1CCC(C(CC2CCCCN2)C2CCCCC2)CC1` (stereo unspecified) has a GI50 (SK-MEL-28 melanoma) of 1.88 µM, a TGI (SK-MEL-28 melanoma) of 3.3 µM and a GI50 (KM12 colon) of 1.87 µM. For the same compound, the TGI (KM12 colon) was 3.42 µM, the GI50 (HOP-62 NSCLC) was 1.35 µM and the TGI (HOP-62 NSCLC) was 2.64 µM. For the same compound, the GI50 (OVCAR-8 ovarian) was 1.77 µM, the TGI (OVCAR-8 ovarian) was 3.53 µM and the GI50 (COLO 205 colon) was 1.42 µM. The TGI (COLO 205 colon) was 2.79 µM, the GI50 (HCT-116 colon) was 1.68 µM and the TGI (HCT-116 colon) was 3.14 µM. The GI50 (SNB-75 CNS) was 1.77 µM, the TGI (SNB-75 CNS) was 3.43 µM and the GI50 (NCI-H522 lung) was 1.6 µM. It also gave a TGI (NCI-H522 lung) of 3.16 µM, a GI50 (UACC-257 melanoma) of 1.71 µM and a TGI (UACC-257 melanoma) of 3.53 µM. For the same compound, the GI50 (IGROV1 ovarian) was 1.87 µM, the TGI (IGROV1 ovarian) was 3.45 µM and the GI50 (U251 CNS) was 1.59 µM. It also gave a TGI (U251 CNS) of 3.02 µM, a GI50 (MOLT-4 leukemia) of 2.45 µM and a TGI (MOLT-4 leukemia) of 4.98 µM. It also gave a GI50 (A498 renal) of 1.36 µM, a TGI (A498 renal) of 2.67 µM and a GI50 (NCI-H226 lung) of 1.64 µM. For the same compound, the TGI (NCI-H226 lung) was 3.19 µM, the GI50 (786-0 renal) was 1.64 µM and the TGI (786-0 renal) was 3.16 µM. The GI50 (SF-295 CNS) was 1.73 µM, the TGI (SF-295 CNS) was 3.21 µM and the GI50 (NCI-H460 lung) was 1.84 µM. It also gave a TGI (NCI-H460 lung) of 3.62 µM, a GI50 (HCT-15 colon) of 1.81 µM and a TGI (HCT-15 colon) of 3.48 µM. The GI50 (BT-549 breast) was 1.93 µM, the TGI (BT-549 breast) was 3.51 µM and the GI50 (HT29 colon) was 1.55 µM. For the same compound, the TGI (HT29 colon) was 3.06 µM, the GI50 (M14 melanoma) was 1.76 µM and the TGI (M14 melanoma) was 3.34 µM. The GI50 (SW-620 colon) was 1.77 µM, the TGI (SW-620 colon) was 3.4 µM and the GI50 (SK-OV-3 ovarian) was 1.54 µM. The TGI (SK-OV-3 ovarian) was 2.88 µM, the GI50 (EKVX NSCLC) was 1.62 µM and the TGI (EKVX NSCLC) was 3.28 µM. It also gave a GI50 (T-47D breast) of 1.44 µM, a TGI (T-47D breast) of 2.94 µM and a GI50 (HCC-2998 colon) of 1.41 µM. For the same compound, the TGI (HCC-2998 colon) was 2.96 µM, the GI50 (RXF 393 renal) was 1.42 µM and the TGI (RXF 393 renal) was 2.78 µM. For the same compound, the GI50 (SK-MEL-2 melanoma) was 2.03 µM, the TGI (SK-MEL-2 melanoma) was 3.69 µM and the GI50 (SN12C renal) was 1.51 µM. The TGI (SN12C renal) was 2.97 µM, the GI50 (CCRF-CEM leukemia) was 1.97 µM and the TGI (CCRF-CEM leukemia) was 4.82 µM. For the same compound, the GI50 (RPMI-8226 leukemia) was 2.17 µM, the TGI (RPMI-8226 leukemia) was 5.56 µM and the GI50 (OVCAR-4 ovarian) was 1.65 µM. It also gave a TGI (OVCAR-4 ovarian) of 3.04 µM, a GI50 (MDA-MB-435) of 1.59 µM and a TGI (MDA-MB-435) of 3.07 µM. The GI50 (SNB-19 CNS) was 1.78 µM, the TGI (SNB-19 CNS) was 3.51 µM and the GI50 (TK-10 renal) was 1.63 µM. The TGI (TK-10 renal) was 3.09 µM, the GI50 (SK-MEL-5 melanoma) was 1.55 µM and the TGI (SK-MEL-5 melanoma) was 2.91 µM. The GI50 (LOX IMVI melanoma) was 1.57 µM, the TGI (LOX IMVI melanoma) was 3.21 µM and the GI50 (ACHN renal) was 1.83 µM. It also gave a TGI (ACHN renal) of 3.32 µM, a GI50 (MALME-3M melanoma) of 1.92 µM and a TGI (MALME-3M melanoma) of 3.69 µM. The GI50 (UACC-62 melanoma) was 1.53 µM, the TGI (UACC-62 melanoma) was 2.96 µM and the GI50 (OVCAR-3 ovarian) was 1.82 µM. For the same compound, the TGI (OVCAR-3 ovarian) was 3.26 µM, the GI50 (NCI/ADR-RES ovarian) was 1.88 µM and the TGI (NCI/ADR-RES ovarian) was 3.81 µM. For the same compound, the GI50 (K-562 leukemia) was 2.45 µM, the TGI (K-562 leukemia) was 5.11 µM and the GI50 (HL-60(TB) leukemia) was 2.37 µM. The TGI (HL-60(TB) leukemia) was 4.38 µM, the GI50 (MDA-MB-231 breast) was 1.25 µM and the TGI (MDA-MB-231 breast) was 2.6 µM. It also gave a GI50 (OVCAR-5 ovarian) of 1.7 µM, a TGI (OVCAR-5 ovarian) of 3.22 µM and a GI50 (SF-268 CNS) of 1.77 µM. The TGI (SF-268 CNS) was 3.23 µM, the GI50 (HS 578T breast) was 2.15 µM and the TGI (HS 578T breast) was 5.55 µM. The GI50 (DU-145 prostate) was 1.8 µM, the TGI (DU-145 prostate) was 3.21 µM and the GI50 (UO-31 renal) was 1.33 µM. It also gave a TGI (UO-31 renal) of 2.65 µM, a GI50 (CAKI-1 renal) of 1.55 µM and a TGI (CAKI-1 renal) of 3.06 µM. It also gave a GI50 (NCI-H23 lung) of 1.72 µM, a TGI (NCI-H23 lung) of 3.49 µM and a GI50 (PC-3 prostate) of 1.5 µM. It also gave a TGI (PC-3 prostate) of 2.95 µM, a GI50 (HOP-92 NSCLC) of 0.99 µM and a TGI (HOP-92 NSCLC) of 2.36 µM. The GI50 (SF-539 CNS) was 1.82 µM, the TGI (SF-539 CNS) was 3.39 µM and the GI50 (SR leukemia) was 2.74 µM. For the same compound, the TGI (SR leukemia) was 6.67 µM, the GI50 (MCF7 breast) was 1.65 µM and the TGI (MCF7 breast) was 3.14 µM. The GI50 (A549 NSCLC) was 1.72 µM and the TGI (A549 NSCLC) was 3.32 µM.
